Bounds are passed on as bounds.

The record followed here is paper PMC12024457 (Antioxidants, 2025).

The conditions of data set [1]: TE: Trolox equivalent.
A short description of data set [2]: DPPH radical scavenging assay. The settings on record: read-out: DPPH (EC50). For orientation: Loss of DPPH colour is used to gauge radical scavenging.
A further data set deals with MDA-MB-231 cells. As to the kind of experiment: Inhibition of RSL3-induced ferroptotic cell death (MTT). In kind it is cell-based, human. The settings on record: at either 3 or 30 μM, RSL3 0.3 µM. The protocol:
The anti-ferroptotic properties of the compounds were evaluated in MDA-MB-231 cells. Cells were seeded in 96-well plates at a density of 20,000 cells per well in 100 μL of medium. After 24 h at 37 °C and 5% CO2, cells were treated with the vehicle (0.5% DMSO) or the compounds at 3 µM and 30 µM alone or in combination with RSL3 (0.3 μM, Cayman Chemicals) for an additional 48 h. The cellular dehydrogenase activity was assessed by the reduction of MTT, as described in Section 2.4.
Radar plot illustrating cell viability measured by MTT assay. […] Data are presented as the mean of n = 3 independent experiments. * p < 0.05, ** p < 0.01; paired Student’s t-test.

Data set [3] relates to human triple-negative MDA-MB-231 breast cancer cells. The data set can be described thus: MTT cell viability, MDA-MB-231. In kind it is cell-based. The settings on record: MDA-MB-231, 48 h, up to 30 µM. How it is done: (§1) MDA-MB-231 and LX2 cells were seeded in triplicate in 96-well plates at a density of 20,000 cells per well in 100 μL of medium and allowed to attach for 24 h at 37 °C and 5% CO2. Compounds were added at a final DMSO concentration of 0.5%, and cells were incubated for an additional 48 h. The pan-kinase inhibitor staurosporine (1 µM, Merck) was used as a reference compound, and the concentration was selected to efficiently induce cell death (≥90%). […]. The concentrations of Q-VD-OPh and ferrostatin-1 were chosen based on commonly applied ranges reported in the literature and were further optimized in preliminary experiments using the apoptosis inducers etoposide and staurosporine, as well as the ferroptosis inducer RSL3, to ensure suppression of apoptosis and ferroptosis, respectively. […] For the MTT assay, 20 µL of 3-(4,5-dimethylthiazol-2-yl)-2,5-diphenyltetrazolium bromide (MTT, 5 mg/mL in PBS pH = 7.4, sterile-filtered, Merck) solution was added to each well, and the cells were incubated for 1.5 h. […] Absorbance was measured at 570 nm using a SpectraMax iD3 plate reader (Molecular Devices). Absorbance values from ethanol-treated cells were used for background subtraction, and cell viability was expressed as percentage relative to the vehicle control (DMSO). […]

For data set [4], the system named is Human MDA-MB-231 breast cancer cells. In kind it is cell-based. The protocol: MDA-MB-231 and LX2 cells were seeded in triplicate in 96-well plates at a density of 20,000 cells per well in 100 μL of medium and allowed to attach for 24 h at 37 °C and 5% CO2. Compounds were added at a final DMSO concentration of 0.5%, and cells were incubated for an additional 48 h. The pan-kinase inhibitor staurosporine (1 µM, Merck) was used as a reference compound, and the concentration was selected to efficiently induce cell death (≥90%). […]. The concentrations of Q-VD-OPh and ferrostatin-1 were chosen based on commonly applied ranges reported in the literature and were further optimized in preliminary experiments using the apoptosis inducers etoposide and staurosporine, as well as the ferroptosis inducer RSL3, to ensure suppression of apoptosis and ferroptosis, respectively. […] Absorbance was measured at 570 nm using a SpectraMax iD3 plate reader (Molecular Devices). Absorbance values from ethanol-treated cells were used for background subtraction, and cell viability was expressed as percentage relative to the vehicle control (DMSO). […]
Cells were treated with vehicle (0.5% DMSO) or compounds at different concentrations (0.3, 1, 3, 10, and 30 μM) for 48 h. Cell viability measured by MTT assay. […]

A further data set has as its system human LX2 stellate cells. As to the kind of experiment: MTT cell viability, LX2. The settings on record: LX2, 48 h, up to 30 µM. Type of data set: cell-based. The protocol: as §1

The term EC50 denotes the concentration needed to bring the measured effect to its halfway point. As for `OCCc1ccc(O)cc1` [TYR, tyrosol], the “ORAC (TE)” value in data set [1] was determined as 2.18 ± 0.12 TE. Also, the EC50 in data set [2] was greater than 1000 µM.

Regarding `OCCc1ccc(O)c(O)c1` [HTYR, 3-hydroxy-tyrosol], in data set [1], the “ORAC (TE)” value is 7.40 ± 0.17 TE. Also, in data set [2], the EC50 is 12.3 ± 1 µM.

As to `COc1ccc2[nH]cc(CCO)c2c1` [MEL, 5-methoxytryptophol], the “ORAC (TE)” value in data set [1] is listed as 2.23 ± 0.12 TE. Further, in data set [2], the EC50 is greater than 1000 µM.

Take `COc1cc(/C=C/C(=O)CC(=O)/C=C/c2ccc(O)c(OC)c2)ccc1O` [Curcumin]: in the data set with MDA-MB-231 cells, the “cytoprotective effects against RSL3-induced ferroptosis” value is reported as “did not exhibit cytoprotective effects”. Moreover, the results for the EC50 (in data set [3]; in the data set on human LX2 stellate cells) were 20 µM and 23 µM, respectively. For the same molecule, the “effect of ferroptosis inhibitor Fer-1 on compound-induced cell death” value in data set [4] (Fer-1 10 μM, 48 h) was “partially attenuated by Fer-1”. Also, in data set [4] (human), the “effect of apoptosis inhibitor Q-VD on compound-induced cell death” value is “tendentially by Q-VD”.

With `COc1cc(CCO)ccc1O` [MTYR, 3-methoxy-tyrosol], the “ORAC (TE)” value in data set [1] came to 2.90 ± 0.21 TE. Moreover, in data set [2], the EC50 was 31 ± 2.6 µM.
